Measured values reported in article PMC2858875 (Chemistry & biology, 2010).

Experiments:
[1] = test system: M-CSF stimulated Ser473 p-Akt production in THP-1 monocytes; experiment: THP-1 signaling assay, M-CSF stimulated Ser473 p-Akt; assay type: cell-based; settings: 50ng/mL CSF-1 for 7 minutes, FACS
[2] = test system: MCP-1 stimulated Ser473 p-Akt production in THP-1 monocytes; experiment: THP-1 signaling assay, MCP-1 stimulated Ser473 p-Akt; assay type: cell-based; settings: 100nM MCP-1 for 5 minutes, FACS
PI3Kδ = biological target: T1, PI3Kδ (Homo sapiens, UniProt O00329); experiment: Class I PI3K kinase assay; settings: biochemical assay, 10μM ATP
T1 sequence (O00329 1-1044): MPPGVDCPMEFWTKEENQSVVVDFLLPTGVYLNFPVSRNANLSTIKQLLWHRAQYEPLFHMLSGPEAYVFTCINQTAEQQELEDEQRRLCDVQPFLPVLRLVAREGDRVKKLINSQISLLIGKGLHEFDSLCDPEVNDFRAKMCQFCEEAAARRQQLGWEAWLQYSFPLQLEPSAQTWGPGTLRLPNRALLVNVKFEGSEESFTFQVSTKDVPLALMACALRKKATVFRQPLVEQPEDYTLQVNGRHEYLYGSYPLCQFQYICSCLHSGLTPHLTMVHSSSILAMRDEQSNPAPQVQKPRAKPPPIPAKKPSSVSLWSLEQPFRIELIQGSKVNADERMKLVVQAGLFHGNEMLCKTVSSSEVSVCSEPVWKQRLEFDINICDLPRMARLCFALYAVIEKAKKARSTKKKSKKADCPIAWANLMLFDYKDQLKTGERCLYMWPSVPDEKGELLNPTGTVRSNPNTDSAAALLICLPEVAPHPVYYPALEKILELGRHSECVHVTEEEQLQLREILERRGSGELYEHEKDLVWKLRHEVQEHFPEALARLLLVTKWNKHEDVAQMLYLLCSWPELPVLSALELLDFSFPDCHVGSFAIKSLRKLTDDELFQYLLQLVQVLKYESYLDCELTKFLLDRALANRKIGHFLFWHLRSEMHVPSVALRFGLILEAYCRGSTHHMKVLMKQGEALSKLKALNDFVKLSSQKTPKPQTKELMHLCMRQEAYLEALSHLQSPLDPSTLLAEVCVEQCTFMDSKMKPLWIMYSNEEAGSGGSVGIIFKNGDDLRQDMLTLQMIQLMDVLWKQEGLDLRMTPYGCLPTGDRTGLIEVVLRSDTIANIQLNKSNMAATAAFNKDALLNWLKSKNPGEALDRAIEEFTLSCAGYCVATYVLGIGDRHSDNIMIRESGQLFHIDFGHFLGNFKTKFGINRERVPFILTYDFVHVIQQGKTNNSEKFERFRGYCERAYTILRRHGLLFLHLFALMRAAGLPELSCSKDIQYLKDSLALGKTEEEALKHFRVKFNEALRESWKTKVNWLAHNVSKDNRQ

all PI3K isoforms = settings: at 300nM; ref Camps et al., 2005; cited from earlier work
PBMC/HUVEC co-culture [3] = test system: PBMC/HUVEC co-culture
PBMC/HUVEC co-culture [4] = assay type: cell-based, human

SMILES: O=C1NC(=O)/C(=C\c2ccc3nccnc3c2)S1 [AS605240]
- block of M-CSF stimulated Ser473 p-Akt production [1]: ineffective
- block of MCP-1 stimulated Ser473 p-Akt production [2]: blocked
- potency against PI3Kδ (in words) (PI3Kδ): do not significantly inhibit PI3Kδ at the doses tested
- inhibition of all PI3K isoforms (all PI3K isoforms): inhibits all PI3K isoforms

SMILES: Cc1ccccc1-n1c(Cn2cnc3c(N)ncnc32)nc2cccc(C)c2c1=O [IC87114]
- E-selectin expression in directly stimulated HUVECs (HUVECs; 3C system): did not inhibit E-selectin expression

SMILES: COc1ccc2c(c1OC)N=C(NC(=O)c1cccnc1)N1CCN=C21 [PIK90]
- HUVEC viability: sulforhodamine B (SRB) protein binding (HUVECs): < -0.3 log ratio
- HLA-DR level (HUVECs; 3C system): strongly inhibited
- urokinase receptor (CD87/uPAR) level (HUVECs; 3C system): strongly inhibited
- HUVEC proliferation (HUVECs; HUVEC-only culture): inhibited HUVEC proliferation
- cell viability (PBMC/HUVEC co-culture [3]): little effect
- CD40 level (PBMC/HUVEC co-culture [3]; LPS system): significantly reduced
- CCL2/MCP-1 production (PBMC/HUVEC co-culture [4]): modest effects
- CD38 production (PBMC/HUVEC co-culture [4]): modest effects
- PBMC proliferation (PBMC/HUVEC co-culture [4]): decrease
